# Source: patent US20060069132A1, “Azolecarboxamide herbicides” (priority 2004, published 2006)
# Experiments:
# giant foxtail [1] = experiment: Test A pre-/postemergence herbicide test; format: in vivo, Setaria faberi
# In short: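 Pre: seeded sandy loam, directed soil spray, compound in non-phytotoxic solvent + surfactant. Post: 1–2-leaf plants (2–10 cm), sprayed to runoff. Greenhouse ~10 d; visual injury vs untreated, 0–100 scale.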
# giant foxtail [2] = experiment: Test B pre-/postemergence herbicide test; format: in vivo, Setaria faberi
# In short: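 Test chemicals in a non-phytotoxic solvent mixture with surfactant were applied preemergence to seeded species and postemergence to plants 2-18 cm tall (1- to 4-leaf stage); rice and barnyardgrass were also tested in a flooded paddy at the 2-leaf stage. Visual rating versus controls after 13-15 days in greenhouse, scale 0 (no effect) to 100 (complete control).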
# cocklebur = experiment: Test C pre-/postemergence herbicide test; format: in vivo, Xanthium strumarium; details: for Cocklebur plant response rating: 500 g ai/ha
# In short: (§1)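 Visual injury scores run from 0 (no effect) to 100 (complete control), assessed relative to untreated controls 12 to 14 days after treatment in the greenhouse. Chemicals were formulated in a non-phytotoxic solvent mixture with surfactant and applied to soil after planting or to emerged plants at the 1- to 4-leaf stage.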
# corn = experiment: Test C pre-/postemergence herbicide test; format: in vivo, Zea mays; details: for Corn plant response rating: 500 g ai/ha
# In short: as §1
# kochia = experiment: Test C pre-/postemergence herbicide test; format: in vivo, Kochia scoparia; details: for Kochia plant response rating: 500 g ai/ha
# In short: as §1
# yellow nutsedge = experiment: Test C pre-/postemergence herbicide test; format: in vivo, Cyperus esculentus; details: for Nutsedge, Yellow plant response rating: 500 g ai/ha
# In short: as §1
# pigweed = experiment: Test C pre-/postemergence herbicide test; format: in vivo, Amaranthus retroflexus; details: for Pigweed plant response rating: 500 g ai/ha
# In short: as §1
# [3] = Postemergence, 500 g ai/ha, 0 to 100 scale, 0 no effect, 100 complete control
# [4] = Postemergence, 2000 g ai/ha, 0 to 100 scale, 0 no effect, 100 complete control
# [5] = postemergence, 125 g ai/ha, visual rating, scale 0 (no effect) to 100 (complete control)
# [6] = 62 g ai/ha, preemergence, scale 0 to 100
# [7] = 125 g ai/ha, scale 0 (no effect) to 100 (complete control), visual, 12 to 14 days, preemergence
# [8] = 250 g ai/ha, scale 0-100, preemergence
# [9] = Preemergence, scale 0 to 100, 0 no effect, 100 complete control
# [10] = Postemergence, 250 g ai/ha, scale 0 to 100, 0 no effect, 100 complete control
# [11] = postemergence, 125 g ai/ha, scale 0 to 100
# [12] = postemergence, 62 g ai/ha, scale 0 to 100
smiles,measurement,setting,value
CC(=NO)c1cccc(NC(=O)c2sc(C(C)(C)C)nc2C)c1 [Compound 195],"Foxtail, Giant plant response rating",giant foxtail [1]; [3],5
same,"Plant response rating, Foxtail, Giant",giant foxtail [1]; [4],0
same,"Foxtail, Giant plant response rating","giant foxtail [1]; Preemergence, 2000 g ai/ha, visual rating, 0 to 100 scale (0 no effect, 100 complete control)",45
same,"Foxtail, Giant plant response rating","giant foxtail [1]; preemergence, 500 g ai/ha, visual injury, 0 to 100 scale (0 no effect, 100 complete control)",30
same,"Foxtail, Giant plant response rating (0 to 100 scale)","giant foxtail [2]; 125 g ai/ha, 0 = no effect, 100 = complete control, preemergence",20
same,"Plant response rating, Foxtail, Giant","giant foxtail [2]; 500 g ai/ha, visual rating 0-100, 0 no effect, 100 complete control, preemergence",60
same,"Foxtail, Giant plant response rating",giant foxtail [2]; [5],20
same,"Foxtail, Giant plant response rating","giant foxtail [2]; postemergence, 500 g ai/ha, visual rating, scale 0 (no effect) to 100 (complete control)",20
same,"Plant response rating, Cocklebur",cocklebur; [6],0
same,"Plant response rating, Cocklebur",cocklebur; [7],0
same,"Plant response rating, Cocklebur",cocklebur; [8],0
same,Cocklebur plant response rating,cocklebur; [9],0
same,"Plant response rating, Corn",corn; [6],0
same,"Plant response rating, Corn",corn; [7],0
same,"Plant response rating, Corn",corn; [8],0
same,Corn plant response rating,corn; [9],0
same,"Plant response rating, Kochia",kochia; [6],0
same,"Plant response rating, Kochia",kochia; [7],0
same,"Plant response rating, Kochia",kochia; [8],10
same,Kochia plant response rating,kochia; [9],85
same,"Plant response rating, Nutsedge, Yellow",yellow nutsedge; [6],0
same,"Plant response rating, Nutsedge, Yellow",yellow nutsedge; [7],0
same,"Plant response rating, Nutsedge, Yellow",yellow nutsedge; [8],0
same,"Nutsedge, Yellow plant response rating",yellow nutsedge; [9],70
same,"Plant response rating, Pigweed",pigweed; [6],55
same,"Plant response rating, Pigweed",pigweed; [7],60
same,"Plant response rating, Pigweed",pigweed; [8],90
same,Pigweed plant response rating,pigweed; [9],90
CCCCOC(=O)c1cccc(NC(=O)c2cc(C(C)(C)C)nn2CC)c1 [Compound 86],"Foxtail, Giant plant response rating",giant foxtail [1]; [3],20
same,"Plant response rating, Foxtail, Giant",giant foxtail [1]; [4],20
same,"Foxtail, Giant plant response rating","giant foxtail [1]; Preemergence, 500 g ai/ha, visual rating, 0 to 100 scale (0 no effect, 100 complete control)",0
same,"Foxtail, Giant plant response rating","giant foxtail [1]; Preemergence, 2000 g ai/ha, 0 to 100 scale, 0 no effect, 100 complete control",0
same,"Plant response rating, Foxtail, Giant","giant foxtail [2]; Postemergence, 500 g ai/ha, visual rating after 13 to 15 days, scale 0 (no effect) to 100 (complete control)",60
same,"Foxtail, Giant plant response rating","giant foxtail [2]; Preemergence, 500 g ai/ha, scale 0 to 100",0
same,"Foxtail, Giant plant response rating",giant foxtail [2]; [5],40
same,"Plant response rating, Foxtail, Giant","giant foxtail [2]; preemergence, 125 g ai/ha, 0 to 100 scale, 0 is no effect, 100 is complete control",0
same,Cocklebur plant response rating,"cocklebur; Postemergence, scale 0 to 100",100
same,"Plant response rating, Cocklebur",cocklebur; [10],100
same,"Plant response rating, Cocklebur",cocklebur; [11],95
same,"Plant response rating, Cocklebur",cocklebur; [12],85
same,Corn plant response rating,"corn; Postemergence, scale 0 to 100",30
same,"Plant response rating, Corn",corn; [10],20
same,"Plant response rating, Corn",corn; [11],20
same,"Plant response rating, Corn",corn; [12],15
same,Kochia plant response rating,"kochia; Postemergence, scale 0 to 100",95
same,"Plant response rating, Kochia",kochia; [10],95
same,"Plant response rating, Kochia",kochia; [11],85
same,"Plant response rating, Kochia",kochia; [12],80
same,"Nutsedge, Yellow plant response rating","yellow nutsedge; Postemergence, scale 0 to 100",30
same,"Plant response rating, Nutsedge, Yellow",yellow nutsedge; [10],10
same,"Plant response rating, Nutsedge, Yellow",yellow nutsedge; [11],5
same,"Plant response rating, Nutsedge, Yellow",yellow nutsedge; [12],0
same,Pigweed plant response rating,"pigweed; Postemergence, scale 0 to 100",100
same,"Plant response rating, Pigweed",pigweed; [10],100
same,"Plant response rating, Pigweed",pigweed; [11],100
same,"Plant response rating, Pigweed",pigweed; [12],100
